Measurements taken from a melting point compilation (Tetko et al.; mined from patent text by program, amines drawn as free bases though some values may be those of a salt).

Structure (SMILES)	melting point [°C]
CC(C)OC(=O)N1CCC(c2ccc3oc(-c4ccc(S(C)(=O)=O)cc4F)nc3c2)CC1	151 to 156
CCOC(=O)C(=O)Nc1c([N+](=O)[O-])sc2ccc([N+](=O)[O-])cc12	178 to 183
CC(C)c1cn2ccccc2c1S(=O)(=O)c1ccc(OCCCN(C)C)cc1	90 to 92
CCCn1c(=O)n2c(=O)[nH]nc2c2[nH]cnc21	> 290
Cc1cc(C)c(C)c(-c2cc3cnc(N)nc3nc2NC(=O)NC(C)(C)C)c1C	> 300
Cc1cc(NC(=O)C(=O)N2CCCCC2)cc(C)c1S(=O)(=O)C[N+](=O)[O-]	169 to 170
CCOC(=O)c1c(C(C)Cl)nc2c(C(F)(F)F)cccc2c1O (stereo not drawn)	104
C#CC(=O)NC[C@@H]1CN2C(=O)C[C@H]2O1 (racemic)	76.5 to 78
CNC(=O)c1ccc(C2=N[C@H]3CCCC[C@H]3c3cc(OC)c(OC)cc32)cc1 (racemic)	209 to 211
CCCC[C@@H](C)C[C@@H](CC(=O)OC(C)(C)C)C(=O)O	142 to 143
Cc1ccc(C(c2cc(C(C)(C)C)cc(C(C)(C)C)c2O)N(C)C)cc1C (stereo not drawn)	82 to 85
NC(c1ccccc1)c1ccc(OCCCCOc2ccc(C(N)c3ccccc3)cc2)cc1 (stereo not drawn)	120 to 123
COc1cc(S(C)(=O)=O)ccc1OCc1ccc(C2CCN(C(=O)OC(C)(C)C)CC2)cn1	135 to 138
c1ccc(-n2c(Cc3cccnc3)nc3ccccc32)cc1	115 to 116
CC(=O)Oc1ccc(C(CN(C(C)=O)C(C)(C)C)OC(C)=O)nc1C (stereo not drawn)	124 to 128
C=C(C)Cc1c(O)c(C)c(C)c2c1CC(C)(C)N2C=O	116 to 118
O=C(NCCCCN1CCC(c2csc3ccccc23)CC1)c1ccc(-c2ccc(C(F)(F)F)cc2)cc1	264
Cc1cccc2c1N(N=C=O)C(=O)CN=C2	206 to 212
Cc1c(-c2cc(CO)c(Cl)cc2F)nn(C)c1C(F)(F)F	58
Nc1ccc(OCC(COc2ccc(N)cc2)(COc2ccc(N)cc2)COc2ccc(N)cc2)cc1	210 to 211
CCOC(=O)Cc1ccc(-n2cc(F)cn2)cc1	83.5 to 84.5
O=C1C=CC(=O)c2cc(C(F)(F)F)c(C(F)(F)F)cc21	91 to 94
OC(c1ccc(Cl)cc1)C(Nn1cncn1)c1ccc(F)cc1F (stereo not drawn)	61 to 76
CCOC(=O)C(=O)Nc1c([N+](=O)[O-])cc(Br)c2c1CN(C)C2	153 to 154
NC1CCCn2c1nc(-c1ccncc1)cc2=O (racemic)	144 to 146

Structure (SMILES)	melting point [°C]
CC(=O)C(CSC(=S)N(C)C)=C(C)O	70 to 72
CC(C)(C)c1cc(CCc2cc(CO)cc(CCc3cc(C(C)(C)C)cc(C(C)(C)C)c3)c2)cc(C(C)(C)C)c1	101
Oc1c(-c2cccnc2)cccc1-c1cccnc1	211
COc1cc(Nc2c(C#N)cnc3cc(-c4cccc(C=O)c4)sc23)c(Cl)cc1Cl	262 to 263
Cc1ccc(C(O)c2ccc(N)cc2)nc1 (stereo not drawn)	114 to 115
O=S(=O)(Cl)c1ccc2oc(Br)c(CBr)c2c1	129 to 130
COc1cc(Cc2cnc(N)nc2N)c2c(c1OC)OC(C)C2 (stereo not drawn)	216 to 219
COc1cc(CCc2c(/C=C/[N+](=O)[O-])ccc(OC)c2OC)cc(OC)c1	95 to 96
OCC1OC(n2c(Cl)nc3cc(Cl)c(Br)cc32)C(O)C1O (stereo not drawn)	158 to 159
CCOC(O)C(F)(F)C(F)(F)C(F)(F)C(F)(F)C(O)OCC (stereo not drawn)	110 to 111
CC(C)(C)NC(=O)c1ccc(-c2cccc3cncn23)cc1	128 to 131
N#Cc1cc(-c2ccncc2)cnc1Cl	219 to 223
O=C(O)c1nn(-c2ccc(Cl)cc2Cl)c2c1SCc1cc(Cl)ccc1-2	262
CSc1nnc(C2C(=O)N(C(N)=O)c3ccc(Cl)cc32)o1 (stereo not drawn)	297 to 299
COc1cc2c(c3c1OC(C)(C)C3)C(c1cccc(C(=O)N[C@H]3CNC3=O)c1)=NC(C)(C)C2	154 to 157
COc1cc(-n2cnc3cc(-c4ccc(Cl)cc4)sc3c2=O)ccc1OC[C@H](OP(=O)(O)O)C1CC1	166
CC1(C)Oc2ccsc2C(NC(=O)c2ccncc2)C1O (stereo not drawn)	223 to 234
CCOC(=O)c1cn(C2CC2)c2c(CN3CCCC3)c(N3CCOCC3)c(F)cc2c1=O	227 to 232
CCOC(=O)C1Cc2c(OC)cc(Cl)c(OC)c2CO1 (stereo not drawn)	95
Fc1ccc(Nc2cc(Cl)nc(NN=Cc3ccc(OC(F)(F)F)cc3)n2)cc1C(F)(F)F	162 to 164
N=C(NC=Cc1ccc([N+](=O)[O-])cc1)c1ccc([N+](=O)[O-])cc1	214 to 216
COCCNC(N)=Nc1nc(-c2cccc(CNC(=O)CN)c2)cs1	66 to 67
CC#CNC(=O)NC(=NC(=O)N(C)C)SC	88 to 91
ClCc1cnc2cc(Cl)ccc2c1Cl	106 to 107
CCCCCCCCCCCCCCCCOCC(CO)OCOC(c1ccccc1)(c1ccccc1)c1ccccc1 (stereo not drawn)	38

Further lines, results first:

melting point [°C]	Structure (SMILES)
212	CN(C)C(=O)c1ccc(-c2ccc(NC(=O)Nc3cccc(C(F)(F)F)c3)c(-c3n[nH]c(=O)[nH]3)c2)cc1
228 to 230	CC(C)(CO)NS(=O)(=O)c1cccc(NC(=O)c2cnn3c(C4CC4)cc(-c4ccc(C(F)(F)F)cc4)nc23)c1
> 250	CC(C)n1nc(-c2cc(C(N)=O)c(=O)[nH]c2-c2ccccc2)ccc1=O
> 340	NC(=O)c1ccccc1-n1nnc2cccnc21
156 to 158	CCc1nc2ccccc2c(=O)n1CCCOc1ccc(SC(C)(C)C(=O)O)cc1
138 to 140	Cc1cc2c(Oc3ccccc3Cl)cccc2[nH]1
177 to 178	COc1cc(COc2nn(-c3ccccc3)cc2/C=C/C(C)=O)ccc1OCc1nc(-c2ccco2)oc1C
113	Cn1c(=S)c(-c2cccs2)nc2ccccc21
167 to 168	COc1ccc(-c2ccc(C(=O)c3ccccc3)cc2)cc1
180 to 182	COC(=O)c1ccc(NC(=O)c2cc(C(C)C)c(C(C)C)s2)cc1
88 to 90	O=C(O)CCNC(=O)NCC(CS)c1ccccc1 (stereo not drawn)
98 to 100	O=C(O)Cc1ccc(Oc2ccc(Cl)cc2)cc1
106 to 108	Cc1ncc(CN2CCC(COCc3ccccc3)CC2)c(N)n1
100	O=C1C(c2ccccc2)N(c2ccc(Oc3ccccc3)cc2)C(=S)N1c1ccccc1 (stereo not drawn)
166 to 167	O=C(O)c1ccc(O)c(Nc2cc(Cl)cc(Cl)c2)c1
195 to 197	CC(C)c1cccc(C(C)C)c1NC(=O)Nc1nnnn1Cc1ccccc1
97 to 98	Cn1c(=O)oc2cc(NCCCc3ccccc3)ccc21
> 270	O=C(O)c1ccc(-c2ccc(NC(=O)C(F)(F)F)cc2)[nH]c1=O
153 to 155	CCOC(=O)Cc1ccc(NC(=O)Nc2ccccc2)cc1
164 to 166	Fc1ccccc1-c1ccc2nnn(Cc3ccc4ncccc4c3)c2n1
96 to 97	CCOc1cccc(S(=O)(=O)c2ccc(C)nc2Nc2c(C)cc(C)cc2C)c1
213 to 214	CC1(C)CCC(C)(C)c2cc(C(C(=O)O)C(=O)Nc3ccc(C(=O)O)cc3)ccc21 (stereo not drawn)
76.3	O=C1N(c2cc(Cl)nc(Cl)c2)C(=O)C2(Cc3ccc(Br)cc3)CCCN12 (stereo not drawn)
54 to 57	CCCCc1oc2ccccc2c1CCc1ccc(OS(=O)(=O)c2ccc(C(=O)O)c(OC(C)=O)c2)cc1

melting point [°C]	Structure (SMILES)
140 to 141	Cc1cc(C)c(Nc2nc(C)ccc2S(=O)(=O)c2ccc(-c3ccccc3)cc2)c(C)c1
> 250	O=C(COCc1cc(Br)cc2[nH]c(=O)c(=O)[nH]c12)Nc1ccccc1
78.5 to 81	Cc1ccccc1-c1ccn(C(C)(C)C(=O)N(C)C)n1
203 to 205	CCC(=O)Nc1ccc(N)c(=O)cc1
57 to 60	CCSC(C)(C)C(=O)CC(=O)Nc1cc(NC(=O)CCCOc2ccc(C(C)(C)CC)cc2C(C)(C)CC)ccc1OC
84 to 85	CCOC(=O)c1nc(S(C)(=O)=O)n(C)c(=O)c1OCc1ccccc1
174 to 177	COCCOc1ccc(CCCOC(=O)NS(=O)(=O)c2ccccc2)c(Oc2ncc(C(F)(F)F)cc2Cl)c1
177 to 179	O=c1cc(-c2ccc(Br)cc2)oc2ccccc12
193 to 194	CCN1C(=S)NNC1c1ccccc1NC(C)=O (stereo not drawn)
141 to 143	Nc1ncccc1C(=O)NCC1CCN(CC2COc3ccc(F)cc3O2)CC1 (stereo not drawn)
248 to 255	C(=C\c1cc(/C=C/c2ccccc2-c2cccnc2)[nH]n1)/c1ccc2cc[nH]c2c1
158 to 163	Clc1cccc(CNc2n[nH]c3ncnc(Nc4cccc(Cl)c4)c23)c1
112 to 116	COc1ccc2nc(-c3ccc(OC)c(F)c3)cc(Cl)c2c1
228 to 230	COc1ccc(C(=O)c2ccc(=O)[nH]c2C)cc1
> 260	O=C1c2ccccc2C(=O)c2oc(-c3ccccc3)nc21
222 to 223	Cc1oc(-c2ccccc2)nc1COc1nn(Cc2ccc(Oc3ccccc3)cc2)cc1C(=O)O
212 to 213	O=c1c2cccnc2n(-c2cccc([N+](=O)[O-])c2)c(=O)n1CCO
167 to 168	COCCNC(=O)c1nc(C)c2cc(Cc3ccc(F)cc3)cnc2c1OCc1ccccc1
130	CC(=O)N1CC(=O)N(CCc2ccccc2)C(=O)C1
137 to 138	CSc1c(NC(C)=O)cnc2ccccc12
169 to 170	CCOC(=O)C1=C(C)NC(C)=C(C(=O)OCC2CC2)C1c1cccc([N+](=O)[O-])c1 (stereo not drawn)
250 to 252	O=C(O)COc1cccc2c1CCc1sc(NC(c3ccccc3)c3ccccc3)nc1-2
81 to 82	O=C(c1ccccc1F)c1cc(Cl)ccc1CSc1ccccc1
97 to 98	CN(Cc1cc2c3c(c1)c(=O)c(C(=O)NCc1ccc(Cl)cc1)cn3CC(=O)N2C)C[C@@H](O)c1cnccn1
